According to ChEMBL document CHEMBL1201862, “PubChem BioAssay data set” (2004):
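These data come from cells grown in 96-well plates and exposed to compound for 48 hours at five concentrations. GI50 marks 50% less growth.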 The source made the active and inactive calls. Rule as the data show it: active = GI50 up to about 1.1 µM and inactive = higher.

Key:
Assay in all cases: NCI-60 cell line screen, 48 h
786-0 = test system: 786-0
A498 = test system: A498
CCRF-CEM = test system: CCRF-CEM
HCT-15 = test system: HCT-15
HL-60 = test system: HL-60
Hs-578T = test system: Hs-578T
MDA-MB-435 = test system: MDA-MB-435
MDA-N = test system: MDA-N
NCI-H23 = test system: NCI-H23
OVCAR-3 = test system: OVCAR-3
OVCAR-5 = test system: OVCAR-5
SF-268 = test system: SF-268
SF-295 = test system: SF-295
SN12C = test system: SN12C
T47D = test system: T47D
U-251 = test system: U-251
UO-31 = test system: UO-31
EKVX = test system: EKVX
OVCAR-4 = test system: OVCAR-4
RXF 393 = test system: RXF 393

With `O=C(O)c1cc(-c2ccc3cc(O)c(O)cc3c2)ccc1O` the GI50 (786-0) was > 12.5 µM (inactive), the GI50 (A498) was > 12.5 µM (inactive) and the GI50 (CCRF-CEM) was > 12.5 µM (inactive). For the same molecule, the GI50 (HCT-15) was greater than 12.5 µM, the GI50 (HL-60) was > 12.5 µM (inactive) and the GI50 (Hs-578T) was > 12.5 µM (inactive). The GI50 (MDA-MB-435) was 5.73 µM (inactive), the GI50 (MDA-N) was 3.88 µM (inactive) and the GI50 (NCI-H23) was > 12.5 µM (inactive). For the same molecule, the GI50 (OVCAR-3) was > 12.5 µM (inactive), the GI50 (OVCAR-5) was > 12.5 µM (inactive) and the GI50 (SF-268) was > 12.5 µM (inactive). For the same molecule, the GI50 (SF-295) was > 12.5 µM (inactive), the GI50 (SN12C) was > 12.5 µM (inactive) and the GI50 (T47D) was > 12.5 µM (inactive). For the same molecule, the GI50 (U-251) was > 12.5 µM (inactive) and the GI50 (UO-31) was > 12.5 µM (inactive).

In the case of `O=C1NCCCc2nonc21`, the GI50 (786-0) is reported as > 100 µM (inactive), the GI50 (CCRF-CEM) is reported as > 100 µM (inactive) and the GI50 (EKVX) is reported as > 100 µM (inactive). The GI50 (HCT-15) was greater than 100 µM, the GI50 (HL-60) was > 100 µM (inactive) and the GI50 (Hs-578T) was > 100 µM (inactive). For the same molecule, the GI50 (MDA-MB-435) was > 100 µM (inactive), the GI50 (MDA-N) was > 100 µM (inactive) and the GI50 (NCI-H23) was > 100 µM (inactive). The GI50 (OVCAR-3) was > 100 µM (inactive), the GI50 (OVCAR-4) was > 100 µM (inactive) and the GI50 (OVCAR-5) was > 100 µM (inactive). The GI50 (RXF 393) was > 100 µM (inactive), the GI50 (SF-268) was > 100 µM (inactive) and the GI50 (SF-295) was > 100 µM (inactive). The GI50 (SN12C) was > 100 µM (inactive), the GI50 (T47D) was > 100 µM (inactive) and the GI50 (U-251) was > 100 µM (inactive). The GI50 (UO-31) was > 100 µM (inactive).

In the case of `O=C(/C=C/c1cccc(Oc2ccccc2)c1)NCc1ccc(C(=O)NCc2ccccc2)cc1`, the GI50 (786-0) is reported as 29 µM (inactive), the GI50 (A498) is reported as 51.5 µM (inactive) and the GI50 (CCRF-CEM) is reported as > 100 µM (inactive). The GI50 (EKVX) was > 100 µM (inactive), the GI50 (HCT-15) was greater than 100 µM and the GI50 (Hs-578T) was > 100 µM (inactive). For the same molecule, the GI50 (MDA-MB-435) was > 100 µM (inactive), the GI50 (MDA-N) was > 100 µM (inactive) and the GI50 (NCI-H23) was 31 µM (inactive). The GI50 (OVCAR-3) was 68.5 µM (inactive), the GI50 (OVCAR-4) was 31 µM (inactive) and the GI50 (OVCAR-5) was > 100 µM (inactive). For the same molecule, the GI50 (RXF 393) was 12.2 µM (inactive), the GI50 (SF-268) was > 100 µM (inactive) and the GI50 (SF-295) was 21.8 µM (inactive). The GI50 (SN12C) was > 100 µM (inactive), the GI50 (T47D) was > 100 µM (inactive) and the GI50 (U-251) was 38.1 µM (inactive). For the same molecule, the GI50 (UO-31) was > 100 µM (inactive).

With `O=C(Nc1ccc2ccccc2c1)Nn1cnnc1` the GI50 (786-0) was > 100 µM (inactive), the GI50 (A498) was > 100 µM (inactive) and the GI50 (CCRF-CEM) was > 100 µM (inactive). The GI50 (EKVX) was > 100 µM (inactive), the GI50 (HCT-15) was greater than 100 µM and the GI50 (HL-60) was > 100 µM (inactive). The GI50 (Hs-578T) was > 100 µM (inactive), the GI50 (MDA-MB-435) was > 100 µM (inactive) and the GI50 (MDA-N) was > 100 µM (inactive). For the same molecule, the GI50 (NCI-H23) was > 100 µM (inactive), the GI50 (OVCAR-3) was > 100 µM (inactive) and the GI50 (OVCAR-4) was > 100 µM (inactive). The GI50 (OVCAR-5) was > 100 µM (inactive), the GI50 (SF-268) was > 100 µM (inactive) and the GI50 (SF-295) was > 100 µM (inactive). The GI50 (T47D) was > 100 µM (inactive), the GI50 (U-251) was > 100 µM (inactive) and the GI50 (UO-31) was 80.4 µM (inactive).

`C(=N\c1nc2cc3sc(/N=C/c4ccccc4)nc3cc2s1)/c1ccccc1` was tested, and the GI50 (786-0) was > 100 µM (inactive), the GI50 (A498) was > 95.7 µM (inactive) and the GI50 (CCRF-CEM) was 2.49 µM (inactive). For the same molecule, the GI50 (EKVX) was 37.7 µM (inactive), the GI50 (HCT-15) was 46 µM and the GI50 (Hs-578T) was > 45.9 µM (inactive). For the same molecule, the GI50 (MDA-MB-435) was > 100 µM (inactive), the GI50 (MDA-N) was > 100 µM (inactive) and the GI50 (NCI-H23) was 39 µM (inactive). For the same molecule, the GI50 (OVCAR-3) was > 85.3 µM (inactive), the GI50 (OVCAR-4) was > 89.5 µM (inactive) and the GI50 (OVCAR-5) was > 69.2 µM (inactive). The GI50 (RXF 393) was > 100 µM (inactive), the GI50 (SF-268) was > 100 µM (inactive) and the GI50 (SF-295) was > 100 µM (inactive). For the same molecule, the GI50 (SN12C) was 69.3 µM (inactive), the GI50 (T47D) was > 67.9 µM (inactive) and the GI50 (U-251) was > 94.6 µM (inactive). The GI50 (UO-31) was 62.5 µM (inactive).

In the case of `CC(=O)OCC(OC(C)=O)C(OC(C)=O)C(OC(C)=O)C(C=NN(C(C)=O)S(=O)(=O)c1ccc(/C=C2\NC(=O)NC2=O)cc1)OC(C)=O` (stereo not given), the GI50 (786-0) is reported as > 100 µM (inactive), the GI50 (A498) is reported as > 100 µM (inactive) and the GI50 (CCRF-CEM) is reported as 84.3 µM (inactive). For the same molecule, the GI50 (EKVX) was > 100 µM (inactive), the GI50 (HCT-15) was greater than 100 µM and the GI50 (Hs-578T) was > 100 µM (inactive). For the same molecule, the GI50 (MDA-MB-435) was > 100 µM (inactive), the GI50 (MDA-N) was > 100 µM (inactive) and the GI50 (NCI-H23) was > 100 µM (inactive). For the same molecule, the GI50 (OVCAR-3) was > 100 µM (inactive), the GI50 (OVCAR-4) was > 100 µM (inactive) and the GI50 (OVCAR-5) was > 100 µM (inactive). The GI50 (RXF 393) was > 100 µM (inactive), the GI50 (SF-268) was > 100 µM (inactive) and the GI50 (SF-295) was > 100 µM (inactive). The GI50 (SN12C) was > 100 µM (inactive), the GI50 (T47D) was > 100 µM (inactive) and the GI50 (U-251) was > 100 µM (inactive). The GI50 (UO-31) was > 100 µM (inactive).

`Cc1nn(C(=O)Cc2ccccc2)c2c1C(c1ccccc1)SC(=N)N2` (stereo not given) was tested, and the GI50 (786-0) was > 100 µM (inactive), the GI50 (A498) was > 100 µM (inactive) and the GI50 (CCRF-CEM) was > 100 µM (inactive). The GI50 (EKVX) was > 100 µM (inactive), the GI50 (HCT-15) was greater than 100 µM and the GI50 (HL-60) was > 100 µM (inactive). The GI50 (Hs-578T) was > 100 µM (inactive), the GI50 (MDA-MB-435) was > 100 µM (inactive) and the GI50 (MDA-N) was > 100 µM (inactive). For the same molecule, the GI50 (NCI-H23) was > 100 µM (inactive), the GI50 (SF-268) was > 100 µM (inactive) and the GI50 (SF-295) was > 100 µM (inactive). For the same molecule, the GI50 (SN12C) was > 100 µM (inactive), the GI50 (T47D) was > 100 µM (inactive) and the GI50 (UO-31) was > 100 µM (inactive).

`COc1ccc2[nH]c3c(c2c1)COc1ccccc1C3=O` was tested, and the GI50 (786-0) was > 100 µM (inactive), the GI50 (A498) was > 100 µM (inactive) and the GI50 (CCRF-CEM) was > 100 µM (inactive). The GI50 (EKVX) was > 100 µM (inactive), the GI50 (HCT-15) was greater than 100 µM and the GI50 (HL-60) was > 100 µM (inactive). The GI50 (Hs-578T) was 69 µM (inactive), the GI50 (MDA-MB-435) was 25.4 µM (inactive) and the GI50 (MDA-N) was > 100 µM (inactive). The GI50 (NCI-H23) was > 100 µM (inactive), the GI50 (OVCAR-3) was > 100 µM (inactive) and the GI50 (OVCAR-4) was > 100 µM (inactive). For the same molecule, the GI50 (OVCAR-5) was > 100 µM (inactive), the GI50 (SF-268) was > 100 µM (inactive) and the GI50 (SF-295) was > 100 µM (inactive). The GI50 (SN12C) was > 100 µM (inactive), the GI50 (T47D) was 44.4 µM (inactive) and the GI50 (U-251) was > 100 µM (inactive). The GI50 (UO-31) was > 100 µM (inactive).
